For experiment [1], the system named is cough induced by citric acid aerosol in guinea pigs. Nature of the experiment: Guinea pig cough test (citric acid aerosol, Charlier procedure). Type of experiment: in vivo. The procedure: (§1) The techniques described by Charlier et al. (Arch. Int. Pharmacodyn. 134, 306, 1961) and by Stefko et al. (J. Pharm. Exp. Therap., 108, 217, 1953), adapted with minor modifications, are used to investigate the antitussive properties of the compounds of the invention. Codeine phosphate is used as positive reference compound.
According to the Charlier procedure guinea pigs are exposed to a citric acid aerosol (7.5%) and cough is recorded 60 minutes after the antitussive treatment by i.p. route. Male animals of 300-400 g pigs are placed in perspex box (20×30×30 cm) connected to an aerosol compressor; the animals are subjected to a citric acid saturated atmosphere, 60 minutes after the i.p. injection of a compound of the invention (0.1 and 0.3M solutions; 1 ml/kg).
The total number of cough strokes and the delay of the first cough are recorded during the first five minutes.
Five guinea pigs are used for each dose level and the results are compared with controls (vehicle treatment) and codeine phosphate 0.07M solution (standard treatment).
ED50 and the corresponding delay of first cough stroke are calculated.
The data obtained by i.p. administration are confirmed by oral administration.

For experiment [2], the system named is cough induced by electric stimulation in dogs. Nature of the experiment: Dog cough test (cough induced by electric stimulation, Stefko procedure). Type of experiment: in vivo, conscious mongrel dogs. Conditions: for antitussive properties (in words) / duration of action: dog cough test; for duration of action: in words. How it is done: as §1
In the Stefko procedure, conscious mongrel dogs (15±3 kg body weight) are used; the compounds of the invention are tested for their ability to inhibit cough induced by electric stimulation.
Under general anesthesia, two insulated nichrome wires (0.4 mm diameter) are surgically implanted into the submucosa of the trachea.
About two days later, the dogs are placed in a sling and the exteriorized electrodes are connected to an electric stimulating device (such as Grass S 48 Mod.).
The stimulation parameters such as: delay 0.01 msec, duration 1 msec, frequency 30 Hz, are used.
An electrical stimulus of 1 sec is applied 10 times at 5 sec intervals in order to determine the minimum voltage necessary for eliciting reproducible cough responses. Then, tussive responses to the electrical stimuli are registered at 15, 30, 60, 90, 120, 150, 180, 240, 300 and 360 minutes after oral administration of the compounds of the invention.
The tussive responses are scored as follows: 1: no response; 2: sigh or exaggerated expiration; 3: marked cough; 4: one marked cough and one exaggerated expiration: 5: two marked coughs.
Six dogs are employed for each determination and the mean activity is calculated.
The inhibition percent of the cough response and the duration of activity are compared with codeine.

The subject of experiment [3] is pathological sputum of bronchitic rabbits. Nature of the experiment: Mucus regulating properties in bronchitic rabbits (sputum AUC as % compared to bronchitic controls). Type of experiment: in vivo, male New Zealand white rabbits. Conditions: for mucus regulating activity (in words): rabbit, in vivo; for Fucose (mg/ml), AUC as a 100% compared to bronchitic controls / Galactose (mg/ml), AUC as a 100% compared to bronchitic controls / Mucus production (ml/kg), AUC as a 100% compared to bronchitic controls / Phospholipids (mg/ml), AUC as a 100% compared to bronchitic controls / Protein (mg/ml), AUC as a 100% compared to bronchitic controls / Sialic acid (mg/ml), AUC as a 100% compared to bronchitic controls / Viscosity (cps), AUC as a 100% compared to bronchitic controls: Table 2, oral, equimolecular amounts to S-carboxymethyl cysteine. The procedure: The animals are submitted to inhalation of a 5% H2 SO3 aqueous solution by aerosol (exposition of 3 hours a day for 3 alternate days), to induce a chronic bronchial inflammatory disease which causes a production of pathological sputum in the bronchial tree.
Aim of the experiments is to evaluate modifications of selective parameters such as dry weight of the sputum, viscosity, content in proteins, phospholipids, galactose, sialic acid and fucose, induced in this pathological sputum by pharmacological treatment with the compounds of the invention.
To this purpose, the sputum produced in the bronchial tree is collected daily, through a "T" shaped glass cannula, inserted in the trachea, before and after oral twice a day (9.00 a.m. and 4.00 p.m.) treatment with one of the compounds of the invention.
The schedule treatment procedure is shown in the following Scheme 1: [drawing 21] where 0 indicates the day of implantation of the tracheal cannula; -7-5-3 indicate the days of H2 SO3 treatment (H); 1, 2, 3, 4 indicate the days of oral administration of the compounds of the invention (T) and the time of mucus collection (M).
The mucus collected in day 1 in the morning is considered as a blank; 7 indicates the day of the animal sacrifice after the mucous collection.
The sputum samples are stored in the freezer (-20° C.) until the investigation of biological and rheological parameters is carried out.
The samples are investigated for relative viscosity, measured at 37° C. with a Brookfield viscometer (model LT VD) equipped with a 1,565° cone-plate, and aliquoted for biochemical analysis of protein, phospholipids, galactose, sialic acid and fucose contents. Dry weight of the mucus is also determined. For each parameter, cumulative data are referred to a seven days period after the beginning of the treatment and they are extrapolated using the AUC method (area under curve) calculated by the trapazoidal rule. Finally the data are compared with data obtained from controls (vehicle treatment), non bronchitic rabbits (vehicle treatment) and positive controls bronchitic rabbits treated with 0.153M […].

Consider six compounds from US4798898A, “Antitussive and mucus regulating 2-substituted thiazolidines” (Boehringer Biochemia Robin S.p.A., priority 1984, dated 1989).

As for `Cc1ccccc1OCC1SCCN1C(=O)Cn1ccnc1` (centres unmarked) [2-tolyloxy-methyl-3-(imidazol-1'-yl)acetylthiazolidine], the “antitussive properties (in words)” value in experiment [1] and in experiment [2] was “not active in the cough tests” each time. Besides, the “mucus regulating activity (in words)” value in experiment [3] is reported as “some mucus regulating action in the bronchitic rabbits, with a spectrum of action very close to that of carboxymethylcysteine”.

As to `COc1ccccc1OCC1SCCN1C(=O)CSC(C)=O` (centres unmarked) [2-(o-methoxyphenoxy)methyl-3-acetylthioacetylthiazolidine], the “antitussive properties (in words)” value in experiment [1] is given as “good antitussive activity”. Also, the ED50 (usually the dose at which the effect has come halfway, by size or by number of responders) in experiment [1] (guinea pig cough test, i.p., 60 minutes after treatment, 60 min) is 77.1 mg/kg. In experiment [1] (guinea pig cough test, i.p., 60 minutes after treatment, listed as 3-Acetylthioacetyl-2-(o-methoxyphenoxymethyl)thiazolidine, 60 min), the ED50 entry is recorded as “lower than 5 mg/kg”. Also, the duration of action entry in experiment [2] is on record as “more favourable duration of action in comparison to codeine”. Besides, the “inhibition of the cough stimulus” value in experiment [2] (dog, 20 mg/kg) is recorded as 54.2%. Moreover, in experiment [3], the “Fucose (mg/ml), AUC as a 100% compared to bronchitic controls” value was 151%; the “Galactose (mg/ml), AUC as a 100% compared to bronchitic controls” value is reported as 57%; the “Mucus production (ml/kg), AUC as a 100% compared to bronchitic controls” value stood at 127%; the “Phospholipids (mg/ml), AUC as a 100% compared to bronchitic controls” value came out at 37%. In experiment [3], the “Protein (mg/ml), AUC as a 100% compared to bronchitic controls” value is reported as 78%; the “Sialic acid (mg/ml), AUC as a 100% compared to bronchitic controls” value is listed as 107%; the “Viscosity (cps), AUC as a 100% compared to bronchitic controls” value is recorded as 59%; the “mucus regulating activity (in words)” value is recorded as “mucus regulating properties”.

For `COc1ccccc1OCC1SCCN1C(=O)C1CC1` (centres unmarked) [3-cyclopropylcarbonyl-2-(o-methoxyphenoxy)methylthiazolidine], the “antitussive properties (in words)” value in experiment [1] was “devoid of any antitussive properties”. In experiment [2], the “antitussive properties (in words)” value was “devoid of any antitussive properties”. Also, in experiment [3], the “Fucose (mg/ml), AUC as a 100% compared to bronchitic controls” value was 103.6%; the “Galactose (mg/ml), AUC as a 100% compared to bronchitic controls” value came to 60.0%; the “Mucus production (ml/kg), AUC as a 100% compared to bronchitic controls” value is 90%; the “Phospholipids (mg/ml), AUC as a 100% compared to bronchitic controls” value came out at 74.5%. Besides, in experiment [3], the “Protein (mg/ml), AUC as a 100% compared to bronchitic controls” value is given as 57.9%; the “Sialic acid (mg/ml), AUC as a 100% compared to bronchitic controls” value is 60%; the “Viscosity (cps), AUC as a 100% compared to bronchitic controls” value is on record as 92.6%.

For the compound `CCOC(=O)[C@@H]1CSC(COc2ccccc2OC)N1` (some centres unmarked) [4-carbethoxy-2-(o-methoxyphenoxy)methyl-thiazolidine], the ED50 result in experiment [1] (guinea pig cough test, i.p., 60 minutes after treatment) is “inactive”. In addition, the duration of action result in experiment [2] is reported as “short”. Also, in experiment [2] (dog, oral, dose not given), the “% inhibition of cough stimulus” value amounted to 26.7%.

On to `CCOC(=O)C(=O)N1CCSC1COc1ccccc1OC` (centres unmarked) [3-ethoxyoxalyl-2-(o-methoxyphenoxy)methyl-thiazolidine], for which the “antitussive properties (in words)” value in experiment [1] is recorded as “devoid of any antitussive properties”. Besides, in experiment [2], the “antitussive properties (in words)” value is reported as “devoid of any antitussive properties”. For the same compound, in experiment [3], the “Fucose (mg/ml), AUC as a 100% compared to bronchitic controls” value is recorded as 149.3%; the “Galactose (mg/ml), AUC as a 100% compared to bronchitic controls” value was determined as 52.3%; the “Mucus production (ml/kg), AUC as a 100% compared to bronchitic controls” value is 108.7%; the “Phospholipids (mg/ml), AUC as a 100% compared to bronchitic controls” value came to 59.8%. Moreover, in experiment [3], the “Protein (mg/ml), AUC as a 100% compared to bronchitic controls” value is reported as 62%; the “Sialic acid (mg/ml), AUC as a 100% compared to bronchitic controls” value is listed as 56.8%; the “Viscosity (cps), AUC as a 100% compared to bronchitic controls” value was determined as 65.1%.

Compound `COc1ccc2c3c1O[C@H]1[C@@H](O)C=C[C@H]4[C@@H](C2)N(C)CC[C@@]341` [codeine phosphate, reference compound] gave an ED50 in experiment [1] (Cavia porcellus, ip, 1 h) of around 23 mg/kg. In experiment [1] (guinea pig cough test, control 100), the “% delay of the first cough” value is listed as 170%. In experiment [2] (dog, 8 mg/kg), the “duration of inhibition of the cough stimulus” value lay in the range of 2 to 4 h and the “inhibition of the cough stimulus” value came out at 52%.
